Read-outs that look alike come from different tables or passages of the source. Where only a bound is given, the exact number is not on record here.

The IC50 is the point on the concentration scale where inhibition reaches its midpoint.

The subject of one series is NCI-H322M. As to the kind of experiment: Docetaxel, 5-FU, SDX-102 alone or combined, MTT/MTS cytotoxicity (Example 4). Type of series: cell-based. The note with it: Homo sapiens, NSCLC, single agent, MTT 72 hours.
A further series deals with A-427. As to the kind of experiment: Intracellular ATP levels (Cell-Titer Glow). It is filed as cell-based. Particulars: Homo sapiens, 72 h; A-427, NSCLC, MTAP Positive; 3 day treatment. How it is done:
(§1) MTAP status was determined using immunoblot analyses and correlated with the ability of an MTA analog to rescue ATP levels in cell lines treated with SDX-102. ATP levels were measured using Cell-Titer Glow™ (Promega) after a 3 day treatment with titrated concentrations of either SDX-102 or pemetrexed.
(§2) ATP values measured using Cell-Titer Glow™ (Promega) after 3 days exposure to the MTA analog. Solid lines in FIG. 8 represent the effect of titrations of SDX-102 from 0.05 μM-20 μM (FIG. 8A) or pemetrexed from 0.01 μM-5 μM (FIG. 8B) on cellular ATP levels. The dotted lines represent the effect of a single concentration of SDX-102 (10 μM) or pemetrexed (2.5 μM) with a titration of an MTA analog from 0.1 μM-50 μM.

Series [1] has as its system NCI-H226. Description: Intracellular ATP levels (Cell-Titer Glow). It is filed as cell-based. Particulars: Homo sapiens, 72 h; NCI-H226, Mesothelioma, MTAP Positive; 3 day treatment. The procedure:
as §1, §2

In series [2] the test system is HS-766T. As to the kind of experiment: Intracellular ATP levels (Cell-Titer Glow). Type of series: cell-based. The note with it: Hs766T, 72 h; HS-766T, Pancreatic, MTAP Positive; 3 day treatment. The procedure: as §1, §2
The next series relates to NCI-H2452. Description: Cell viability MTT assay (Example 3). It is filed as cell-based. Particulars: Homo sapiens, 72 h; NCI-H2452, Mesothelioma, MTAP Negative; 3 days.
For series [3], the system named is HS-766T. Description: Cell viability MTT assay (Example 3). Type of series: cell-based. The note with it: Hs766T, 72 h, Pancreatic, MTAP Positive, 3 days. A general note: Tetrazolium assays rely on reduction of a dye to a coloured formazan, in cell work by metabolically active cells.
The subject of a further series is BX-PC3. Description: Docetaxel, 5-FU, SDX-102 alone or combined, MTT/MTS cytotoxicity (Example 4). It is filed as cell-based. Particulars: Homo sapiens, BXPC-3; BX-PC3, Pancreatic, single agent, MTT 72 hours.
In series [4] the test system is NCI-H226. As to the kind of experiment: Cell viability MTT assay (Example 3). Type of series: cell-based. Particulars: Homo sapiens, 72 h; NCI-H226, Mesothelioma, MTAP Positive; 3 days.
For series [5] the following is noted: humans, intravenous, biphasic plasma clearance; times approximate; cited from earlier work.
Series [6] is classed as physicochemical. The note with it: for Amount degraded/day (%) / Predicted purity after 2 years: Arrhenius analysis. How it is done: An Arrhenius analysis was performed to predict the loss of potency and increase in degradation products over time for commonly used storage temperatures for many drugs. […] Sets of the different solutions were then placed at 40° C., 50° C., or 60° C., and samples were taken every ten days over a 60 day period. […] Specifically, these plots show a distinct difference in purity as a function of pH and temperature. […] In the pH 7.5 formulation, there was more of each of these four impurities as compared to the pH 8.5 formulation. The impurity at RRT 0.32 formed readily as a function of temperature and pH. The impurities at RRTs 0.43 and 0.46 also formed as a function of temperature and pH, but not as readily.
Indeed, the purity of the samples is similar at pH 8.5 and 9.0. […] The trends in the data shown in FIG. 5 allow an Arrhenius analysis to be performed to predict changes in purity over time at various temperatures, particularly 5° C. and 25° C. Linear regression was used to determine the positions of the lines shown in FIG. 5, which then allowed the slope of the lines (i.e., the reaction rates, per day) to be determined for each pH and a given temperature. Arrhenius plots were the generated for each of pHs 7.5, 8.5 and 9.0 from the reaction rate versus the inverse temperatures. These plots are shown in FIG. 7, which allow the equation of the lines for each of three liquid formulations to be calculated. From these equations, the purity of any given temperature for a particular formulation at a given time can be predicted.
The HPLC system (Waters Corp., model 2690 Gradient HLPC System) employed a 4.6 mm×250 mm column (MetaChem Inc.) containing 5 μm particles (Inertsil ODS-3) as the stationary phase. The system was equipped with a UV/VIS detector (Waters Corp., model 996) set to 226 nm to monitor products being eluted from the column. Data generated from the column was managed on a personal computer running Empower Software (Waters Corp.). After preparation, the column was washed with at least 100 mL of water/acetonitrile (90:10, v/v), and stored at ambient temperature in the same solution.
In each HPLC run, the mobile phase, flowing at 1.0 mL/min., comprised 7.0 g of anhydrous monobasic potassium phosphate (KH2PO4; JT Baker) dissolved in 1000 mL H2O (at least HPLC grade). The pH of the solution was adjusted to 2.5 using phosphoric acid (85%, Fisher Scientific). 2.4 g of 1-decane sulfonic acid, sodium salt (Avocado Research Chemicals) was then mixed into the solution. 50 mL of acetonitrile (HPLC Grade, Burdick & Jackson) was then mixed with 950 mL of this solution. This mixture was then degassed by filtering through Durapore membrane filters, 0.45 μm, Type HVLP, under vacuum. The column flow rate was set at 1.0 mL/min.
Diluent was prepared by dissolving 3.5 g KH2PO4 and 3.5 g (Na2HPO4, Mallincrodt) in 1000 mL of HPLC grade H2O. […] Once prepared, an alanosine standard solution was stored at ambient temperature and retained for no more than seven days.
In addition to an alanosine standard solution, a sensitivity standard was also prepared by diluting 1 mL of the alanosine standard solution 1:100 using diluent.
HPLC runs were performed after the column had equilibrated for at least three hours in the mobile phase at room temperature. Column suitability was assessed at the beginning and end of each series of experiment as follows. Initially, two 10 μL aliquots of diluent were injected onto the column in duplicate, and the chromatographs recorded and examined.

The conditions of series [7]: cited from earlier work.
The test system of another series is A549 NSCLC xenografts. As to the kind of experiment: MTAP-negative A549 NSCLC xenografts in SCID mice. Type of series: in vivo. The note with it: 60 days monitoring, doses as administered.
The conditions of series [8]: 6 months, 20 mg/mL, pH 8.5.
Procedure: Each solution was divided into 5 mL aliquots and placed in 6 mL vials sealed with Teflon-faced screw caps (VWR Scientific, catalogue No. 66011-880). Vials of each solution were placed at five different temperatures, −20° C., 5° C., 25° C., 40° C., and 60° C., and aliquots were analyzed at various time points to determine stability.

Consider `NC(CN(O)N=O)C(=O)O` [L-alanosine, L(−)-2-amino-3-nitrosohydroxylaminopropionic acid], for which the concentration for half-maximal inhibition (IC50) was 6 ± 1 µM in the series with NCI-H322M; 1.5 µM with A-427; 0.4 µM with NCI-H226 [1]; 2 µM in the series on HS-766T [2]; 0.5 µM in the series on NCI-H2452; > 20 µM in the series with HS-766T [3]. Moreover, the half-maximal inhibitory concentration (IC50) was found to be 3 ± 1 µM with BX-PC3 and 1.5 µM in the series with NCI-H226 [4]. The t1/2α in series [5] was ~14 min. Further, in series [5], the t1/2β is ~99 min. Moreover, the “Amount degraded/day (%)” value in series [6] (20 mg/mL, pH 7.5, 5° C.) is 0.000374%; in series [6] (20 mg/mL, pH 7.5, 25° C.), 0.000601%. In addition, the “Predicted purity after 2 years” value in series [6] (20 mg/mL, pH 7.5, 5° C.) is given as 99.727%; in [6] (20 mg/mL, pH 7.5, 25° C.) it was 99.561%; in series [6] (20 mg/mL, pH 8.5, 5° C.), 99.985%; in series [6] (20 mg/mL, pH 8.5, 25° C.) it was 99.930%; in series [6] (20 mg/mL, pH 9.0, 5° C.), 100.00%; in series [6] (20 mg/mL, pH 9.0, 25° C.), 100.00%. In addition, in [6] (20 mg/mL, pH 8.5-9.0, stored at 25° C., at least two years), the calculated purity result is listed as “more than 99.9%”. Further, the “trend in purity over 60 days” value in series [6] (solutions pH 7.5, 8.5, 9.0 stored at 40° C.) is “no trend in decreased purity”. In series [7] (human, in vivo), the “single bolus dose at which renal toxicity reported” value is recorded as “above 4 g/m^2 body weight”. In series [7] (phase II, adults with acute non-lymphoblastic leukemia, continuous infusion about 125 mg/m^2 for 5 days), the dose-limiting toxicity result is “mucositis”. For the same compound, in the series on A549 NSCLC xenografts, the tumor growth inhibition result is “did not induce tumor growth inhibition”. Moreover, the “stability versus freshly reconstituted lyophilizate (HPLC)” value in series [8] is “as stable after storage at 5 °C for six months as a composition prepared by freshly reconstituting lyophilized L-alanosine”.
